Test results published in ChEMBL document CHEMBL1144575, “Design and synthesis of 3,5-disubstituted benzamide analogues of DNK333 as dual NK1/NK2 receptor probes” (Bioorg Med Chem Lett, 2007).
The source made the active and inactive calls. The rule behind the calls is not given here.

Tests used:
Type in all cases: functional, tissue-based
[1] = molecular target: Substance-P receptor (Cavia porcellus) (UniProt P30547); assay: Antagonist activity at NK1 receptor in guinea pig trachea as inhibition of ASM-SP-induced bronchoconstriction up to 1 uM
[2] = molecular target: T1, Substance-K receptor (Cavia porcellus) (UniProt Q64077); assay: Antagonist activity at NK2 receptor in guinea pig trachea as inhibition of [beta-Ala8]NKA(4-10)-induced bronchoconstriction up to 1 uM
T1 sequence (whole entry): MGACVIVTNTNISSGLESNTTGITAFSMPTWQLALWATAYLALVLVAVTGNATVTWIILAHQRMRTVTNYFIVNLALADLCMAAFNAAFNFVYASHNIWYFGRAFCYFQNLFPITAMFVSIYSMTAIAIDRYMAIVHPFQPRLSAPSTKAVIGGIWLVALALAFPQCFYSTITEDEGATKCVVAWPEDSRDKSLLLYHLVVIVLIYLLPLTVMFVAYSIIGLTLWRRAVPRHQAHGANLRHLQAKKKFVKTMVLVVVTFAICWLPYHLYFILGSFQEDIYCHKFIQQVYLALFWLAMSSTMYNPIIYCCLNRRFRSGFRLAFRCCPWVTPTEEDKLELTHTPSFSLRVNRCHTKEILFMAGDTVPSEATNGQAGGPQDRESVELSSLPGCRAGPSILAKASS

[3] = molecular target: Substance-P receptor (Cavia porcellus) (UniProt P30547); assay: Antagonist activity at NK1 receptor in guinea pig trachea as inhibition of ASM-SP-induced bronchoconstriction relative to control; parameters: scale not given: the % may be the effect or the level left
[4] = molecular target: Substance-P receptor (Cavia porcellus) (UniProt P30547); assay: Antagonist activity at NK1 receptor in guinea pig trachea as inhibition of ASM-SP-induced bronchoconstriction
[5] = molecular target: T1, Substance-K receptor (Cavia porcellus); assay: Antagonist activity at NK2 receptor in guinea pig trachea as inhibition of [beta-Ala8]NKA(4-10)-induced bronchoconstriction relative to control; parameters: scale not given: the % may be the effect or the level left
[6] = molecular target: T1, Substance-K receptor (Cavia porcellus); assay: Antagonist activity at NK2 receptor in guinea pig trachea as inhibition of [beta-Ala8]NKA(4-10)-induced bronchoconstriction

Sequence of Substance-P receptor (Cavia porcellus) (P30547 whole entry): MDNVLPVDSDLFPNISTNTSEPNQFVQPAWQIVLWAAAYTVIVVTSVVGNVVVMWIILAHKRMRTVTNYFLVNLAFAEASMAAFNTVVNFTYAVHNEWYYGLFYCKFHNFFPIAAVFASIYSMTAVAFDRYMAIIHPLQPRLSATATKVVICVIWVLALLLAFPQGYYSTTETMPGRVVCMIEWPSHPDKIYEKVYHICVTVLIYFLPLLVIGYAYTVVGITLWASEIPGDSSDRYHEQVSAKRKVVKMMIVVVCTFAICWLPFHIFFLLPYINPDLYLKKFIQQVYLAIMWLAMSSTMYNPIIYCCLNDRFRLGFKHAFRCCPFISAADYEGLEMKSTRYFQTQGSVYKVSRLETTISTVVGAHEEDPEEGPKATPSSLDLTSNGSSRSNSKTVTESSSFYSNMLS

Activity [1] | Activity [2] | Activity [3] [%] | pKb [4] | Activity [5] [%] | pKb [6] | Structure (SMILES)
inactive | inactive |  |  |  |  | CN(C(=O)c1cc(NC(=O)CBr)cc(NC(=O)CBr)c1)[C@@H](/C=C/C(=O)N[C@@H]1CCCCNC1=O)Cc1ccc(Cl)c(Cl)c1
 |  | 89.4 | 9.2 | 97 | 7.43 | CN(C(=O)c1cc(C(F)(F)F)cc(C(F)(F)F)c1)[C@@H](/C=C/C(=O)N[C@@H]1CCCCNC1=O)Cc1ccc(Cl)c(Cl)c1
inactive | inactive |  |  |  |  | CN(C(=O)c1cc(N=C=S)cc(N=C=S)c1)[C@@H](/C=C/C(=O)N[C@@H]1CCCCNC1=O)Cc1ccc(Cl)c(Cl)c1
inactive | inactive |  |  |  |  | COC(=S)Nc1cc(NC(=S)OC)cc(C(=O)N(C)[C@@H](/C=C/C(=O)N[C@@H]2CCCCNC2=O)Cc2ccc(Cl)c(Cl)c2)c1
inactive | inactive |  |  |  |  | CC(=O)Nc1cc(NC(C)=O)cc(C(=O)N(C)[C@@H](/C=C/C(=O)N[C@@H]2CCCCNC2=O)Cc2ccc(Cl)c(Cl)c2)c1
inactive | inactive |  |  |  |  | CN(C(=O)c1cc(N)cc(N)c1)[C@@H](/C=C/C(=O)N[C@@H]1CCCCNC1=O)Cc1ccc(Cl)c(Cl)c1
 |  | 96.1 | 8.4 | 96.1 | 7.87 | CN(C(=O)c1cc([N+](=O)[O-])cc([N+](=O)[O-])c1)[C@@H](/C=C/C(=O)N[C@@H]1CCCCNC1=O)Cc1ccc(Cl)c(Cl)c1
